One experiment concerns Jurkat. Kind of experiment: Cell proliferation assay (Alamar Blue), Jurkat. The class given is cell-based. The conditions noted are these: Homo sapiens; Jurkat cell line. How it is done: (§1) A representative cell-proliferation assay protocol using Alamar Blue dye (stored at 4° C., use 20 ul per well) is described hereafter.
(§2) 96-Well Plate Setup and Compound Treatment
(§3) • a. Split and trypsinize cells. • b. Count cells using hemocytometer. • c. Plate 4,000-5,000 cells per well in 100 μl of medium and seed into a 96-well plate according to the following plate layout. Add cell culture medium only to wells B10 to B12. Wells B1 to B9 have cells but no compound added.
(§4) • d. Add 100 μl of 2× drug dilution to each well in a concentration shown in the plate layout above. At the same time, add 100 μl of media into the control wells (wells B10 to B12). Total volume is 200 μl/well. • e. Incubate four (4) days at 37° C., 5% CO2 in a humidified incubator. • f. Add 20 μl Alamar Blue reagent to each well. • g. Incubate for four (4) hours at 37° C., 5% CO2 in a humidified incubator. • h. Record fluorescence at an excitation wavelength of 544 nm and emission wavelength of 590 nm using a microplate reader.
(§5) In the assays, cells are cultured with a test compound for approximately four days, the dye is then added to the cells and fluorescence of […] dye is detected after approximately four hours. Different types of cells can be utilized in the assays (e.g., HCT-116 human colorectal carcinoma cells, PC-3 human prostatic cancer cells and MiaPaca human pancreatic carcinoma cells).

Another experiment concerns PanC1. Kind of experiment: Cell proliferation assay (Alamar Blue), PanC1. In kind it is cell-based. The note with it: Homo sapiens, PANC-1; PanC1 cell line. How it is done: as §1, §2, §3, §4, §5
Experiment [1] has as its system MiaPaca human pancreatic carcinoma cells. Kind of experiment: Cell proliferation assay (Alamar Blue), MiaPaCa. The class given is cell-based. The note with it: MIA PaCa-2, MiaPaCa cell line. The procedure: as §1, §2, §3, §4, §5
The subject of another experiment is K562. Kind of experiment: Cell proliferation assay (Alamar Blue), K562. The class given is cell-based. The note with it: Homo sapiens; K562 cell line. The procedure: as §1, §2, §3, §4, §5
The next experiment deals with MDA-MB231. In words: Cell proliferation assay (Alamar Blue), MDA-MB231. In kind it is cell-based. The conditions noted are these: Homo sapiens, MDA-MB-231; MDA-MB231 cell line. The procedure:
as §1, §2, §3, §4, §5

The next experiment deals with T1, recombinant human CK2 (Homo sapiens, UniProt P68400).
T1 construct: purchased Upstate
T1 sequence (P68400 whole entry): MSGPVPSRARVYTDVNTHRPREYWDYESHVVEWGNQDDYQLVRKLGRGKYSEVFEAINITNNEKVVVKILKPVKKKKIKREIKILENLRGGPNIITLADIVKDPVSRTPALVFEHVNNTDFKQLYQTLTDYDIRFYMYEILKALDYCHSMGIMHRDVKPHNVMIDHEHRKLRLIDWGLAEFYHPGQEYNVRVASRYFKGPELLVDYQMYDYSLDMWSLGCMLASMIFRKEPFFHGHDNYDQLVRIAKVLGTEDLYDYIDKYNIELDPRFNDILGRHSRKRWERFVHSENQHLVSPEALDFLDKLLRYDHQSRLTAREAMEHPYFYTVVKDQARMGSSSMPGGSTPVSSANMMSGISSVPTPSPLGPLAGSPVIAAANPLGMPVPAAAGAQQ
T1 sequence (P67870 whole entry partner): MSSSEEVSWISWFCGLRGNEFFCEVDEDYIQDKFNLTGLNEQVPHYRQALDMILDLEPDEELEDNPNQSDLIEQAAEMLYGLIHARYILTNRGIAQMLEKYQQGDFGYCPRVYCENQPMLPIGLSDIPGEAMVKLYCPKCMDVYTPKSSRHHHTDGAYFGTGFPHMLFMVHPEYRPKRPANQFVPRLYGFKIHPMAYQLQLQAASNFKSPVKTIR
In words: Cell-free CK2 assay. In kind it is biochemical. The procedure: Modulatory activity of compounds described herein is assessed in vitro in cell-free CK2 assays. These assays are described hereafter.
Test compounds in aqueous solution are added at a volume of 10 microliters, to a reaction mixture comprising 10 microliters Assay Dilution Buffer (ADB; 20mM MOPS, pH 7.2, 25 mM beta-glycerolphosphate, 5 mM EGTA, 1 mM sodium orthovanadate and 1 mM dithiothreitol), 10 microliters of substrate peptide (RRRDDDSDDD (SEQ ID NO:4), dissolved in ADB at a concentration of 1 mM), 10 microliters of recombinant human CK2 (25 ng dissolved in ADB; Upstate). Reactions are initiated by the addition of 10 microliters of ATP Solution (90% 75 mM MgC12, 75 micromolar ATP dissolved in ADB; 10% [γ-^33P]ATP (stock 1 mCi/100 μl; 3000 Ci/mmol (Perkin Elmer) and maintained for 10 minutes at 30 degrees C. The reactions are quenched with 100 microliters of 0.75% phosphoric acid, then transferred to and filtered through a phosphocellulose filter plate (Millipore). After washing each well 5 times with 0.75% phosphoric acid, the plate is dried under vacuum for 5 min and, following the addition of 15 ul of scintillation fluid to each well, the residual radioactivity is measured using a Wallac […].

A further experiment has as its system MV-4-11. In words: Cell proliferation assay (Alamar Blue), MV-4-11. In kind it is cell-based. The note with it: Homo sapiens, MV4-11; MV-4-11 cell line. The procedure:
as §1, §2, §3, §4, §5

Another experiment relates to BxPC3. Kind of experiment: Cell proliferation assay (Alamar Blue), BxPC3. The conditions noted are these: Homo sapiens, BXPC-3; BxPC3 cell line; read-out: Bx-PC3. In kind it is cell-based. The procedure: as §1, §2, §3, §4, §5
The test system of experiment [2] is HCT-116 human colorectal carcinoma cells. In words: Cell proliferation assay (Alamar Blue), HCT-116. The note with it: HCT-116 cell line. The class given is cell-based. How it is done: as §1, §2, §3, §4, §5

Molecules are shown by their SMILES. A value given as a limit tells only on which side of the number the result lay.

Experimental findings from patent US7910600B2, “Therapeutic kinase modulators” (Cylene Pharmaceuticals, Inc., priority 2007, dated 2011) are described below.

`Cn1cc(-c2nc3cc(C(=O)O)ccc3c3cnc(NC4CC4)nc23)cn1`: the IC50 in the experiment on Jurkat is 3600 nM; in the experiment on PanC1, above 30000 nM; in [1] it was 900 nM; in the experiment on K562, 600 nM; in the experiment on MDA-MB231, above 30000 nM; on recombinant human CK2 it was 4 nM. The IC50 in the experiment on MV-4-11 is 600 nM; with BxPC3 it was 13600 nM; in [2], above 10000 nM. Moreover, the inhibition at 0.5 µM at recombinant human CK2 (read-out: CK2: % inh 500 nM) came out at 101%.
